Measured values as given in patent publication US20240208992A1, “MACROCYCLES AS CFTR MODULATORS” (Idorsia Pharmaceuticals Ltd, priority 2021, published 2024).

Molecular target: human F508del-CFTR (Homo sapiens, UniProt P13569, DEL508-508)
Assay: F508del-CFTR cell surface expression (corrector activity), DiscoveRx ß-galactosidase complementation chemiluminescence assay in recombinant U2OS cell line;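 also: U2OS cells co-expressing ProLink-tagged F508del-CFTR and a membrane-anchored enzyme acceptor, where more surface CFTR restores β-galactosidase activity measured by chemiluminescence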
Conditions: for EC50: EC50, F508del-CFTR cell surface expression; for Emax: U2OS
[1] = U2OS cell line, 16h compound incubation, geomean values
[2] = in relation to the Emax of the corrector lumacaftor (=100%), U2OS cell line, 16h compound incubation, arithmetic mean values
[3] = U2OS cells, 16h compound incubation, geomean of several measurements
[4] = in relation to the Emax of the corrector lumacaftor (=100%), U2OS cells, 16h compound incubation, arithmetic mean
[5] = U2OS cells, 16h compound incubation, geomean values
[6] = in relation to Emax of corrector lumacaftor (=100%), arithmetic mean values

Chain of human F508del-CFTR (P13569 with tags, fused parts or gaps DEL508-508): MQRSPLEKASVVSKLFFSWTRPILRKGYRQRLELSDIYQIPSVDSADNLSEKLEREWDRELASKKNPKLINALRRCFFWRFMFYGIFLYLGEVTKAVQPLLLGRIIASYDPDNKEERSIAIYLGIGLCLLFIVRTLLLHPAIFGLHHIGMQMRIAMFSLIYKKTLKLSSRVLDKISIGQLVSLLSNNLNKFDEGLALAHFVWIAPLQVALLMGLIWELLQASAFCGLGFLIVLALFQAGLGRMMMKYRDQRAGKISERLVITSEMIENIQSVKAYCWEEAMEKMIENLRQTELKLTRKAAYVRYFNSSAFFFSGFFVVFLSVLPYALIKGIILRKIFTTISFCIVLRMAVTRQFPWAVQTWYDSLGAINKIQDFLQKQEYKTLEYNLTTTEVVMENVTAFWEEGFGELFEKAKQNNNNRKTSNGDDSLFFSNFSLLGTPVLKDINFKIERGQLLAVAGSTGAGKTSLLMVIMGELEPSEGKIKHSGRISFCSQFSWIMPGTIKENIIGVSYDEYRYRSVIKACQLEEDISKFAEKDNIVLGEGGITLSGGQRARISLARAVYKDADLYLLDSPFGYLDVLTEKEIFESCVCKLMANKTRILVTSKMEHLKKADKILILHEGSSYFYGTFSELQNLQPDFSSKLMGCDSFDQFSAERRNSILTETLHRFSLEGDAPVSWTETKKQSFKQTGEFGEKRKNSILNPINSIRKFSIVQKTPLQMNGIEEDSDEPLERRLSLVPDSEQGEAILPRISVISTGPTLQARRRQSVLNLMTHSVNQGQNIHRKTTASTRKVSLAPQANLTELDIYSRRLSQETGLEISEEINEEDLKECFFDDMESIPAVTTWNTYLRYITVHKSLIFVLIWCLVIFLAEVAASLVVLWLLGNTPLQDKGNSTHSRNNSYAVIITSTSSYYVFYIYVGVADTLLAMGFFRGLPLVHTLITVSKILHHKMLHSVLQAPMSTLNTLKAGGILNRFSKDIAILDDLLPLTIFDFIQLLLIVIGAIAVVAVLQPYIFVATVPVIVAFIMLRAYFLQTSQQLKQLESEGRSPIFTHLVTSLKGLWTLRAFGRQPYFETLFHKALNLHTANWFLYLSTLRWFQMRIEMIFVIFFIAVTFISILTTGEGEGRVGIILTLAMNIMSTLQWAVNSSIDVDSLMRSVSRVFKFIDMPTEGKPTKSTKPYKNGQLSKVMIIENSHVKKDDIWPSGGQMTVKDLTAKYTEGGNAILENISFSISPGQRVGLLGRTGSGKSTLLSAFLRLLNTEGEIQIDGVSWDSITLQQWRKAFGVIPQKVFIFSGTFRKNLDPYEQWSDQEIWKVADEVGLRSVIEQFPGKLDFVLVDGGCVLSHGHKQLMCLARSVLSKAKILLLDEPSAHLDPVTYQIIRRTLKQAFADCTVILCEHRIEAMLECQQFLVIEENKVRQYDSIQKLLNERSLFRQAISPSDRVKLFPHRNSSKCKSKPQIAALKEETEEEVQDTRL

Row | SMILES | Emax [2] | EC50 [1] | other results
1 | COc1nccc2c1C(=O)N[C@H](C(=O)NCCc1ccc(-c3ncccn3)cc1)CC(=O)N(C)[C@@H](CC(C)C)C(=O)N1CCCC[C@@H]1C(=O)N[C@H](Cc1ccccc1)CO2 [Example 181, (7S,11S,17aR,20R)-20-benzyl-11-isobutyl-4-methoxy-10-methyl-5,9,12,18-tetraoxo-N-(4-(pyrimidin-2-yl)phenethyl)-5,6,7,8,9,10,11,12,15,16,17,17a,18,19,20,21-hexadecahydro-14H-dipyrido[2,1-f:3′,4′-p][1]oxa[4,7,10,14]tetraazacycloheptadecine-7-carboxamide] | 251% | 718 nM | –
2 | CC(C)C[C@H]1C(=O)N2CCCC[C@@H]2C(=O)N[C@H](Cc2ccccc2)COc2cnc3ccccc3c2C(=O)N[C@H](C(=O)NCCc2nc(-c3ccccc3OC(F)(F)F)no2)CC(=O)N1C [Example 87, (9S,13S,19aR,22R)-22-benzyl-13-isobutyl-12-methyl-7,11,14,20-tetraoxo-N-(2-(3-(2-(trifluoromethoxy)phenyl)-1,2,4-oxadiazol-5-yl)ethyl)-7,8,9,10,11,12,13,14,17,18,19,19a,20,21,22,23-hexadecahydro-16H-pyrido[2′,1′:6,7][1]oxa[4,7,10,14]tetraazacycloheptadecino[17,16-c]quinoline-9-carboxamide] | 190% | 162 nM | –
3 | CC(C)C[C@H]1C(=O)N(CCC2CC3CCC2O3)CC(=O)N[C@H](Cc2ccccc2)COc2ccc3ccccc3c2C(=O)N[C@H](C(=O)NCCc2ccc3c(c2)OCO3)CC(=O)N1C (stereo partly drawn) [Example 330, (3S,7S,13R)-9-(2-(7-oxabicyclo[2.2.1]heptan-2-yl)ethyl)-N-(2-(benzo[d][1,3]dioxol-5-yl)ethyl)-13-benzyl-7-isobutyl-6-methyl-1,5,8,11-tetraoxo-1,2,3,4,5,6,7,8,9,10,11,12,13,14-tetradecahydronaphtho[1,2-p][1]oxa[4,7,10,14]tetraazacycloheptadecine-3-carboxamide] | 138% | 418 nM | –
4 | CC(C)C[C@H]1C(=O)N(C)C2(CC2)C(=O)N[C@H](Cc2ccccc2)COc2cnc3ccc(F)cc3c2C(=O)N[C@H](C(=O)NCCc2cc(C3CC3)on2)CC(=O)N1C [Example 142, (3′S,7′S,13′R)-13′-benzyl-N-(2-(5-cyclopropylisoxazol-3-yl)ethyl)-20′-fluoro-7′-isobutyl-6′,9′-dimethyl-1′,5′,8′,11′-tetraoxo-2′,3′,4′,5′,6′,7′,8′,9′,11′,12′,13′,14′-dodecahydro-1′H-spiro[cyclopropane-1,10′-[1]oxa[4,7,10,14]tetraazacycloheptadecino[17,16-c]quinoline]-3′-carboxamide] | 381% | 194 nM | –
5 | CC(C)C[C@H]1C(=O)N(C)C2(CC2)C(=O)N[C@H](Cc2ccccc2)COc2ccc3ncc(F)cc3c2C(=O)N[C@H](C(=O)NCCn2nnc(C3CC3)n2)CC(=O)N1C [Example 817, (3′S,7′S,13′R)-13′-benzyl-N-(2-(5-cyclopropyl-2H-tetrazol-2-yl)ethyl)-20′-fluoro-7′-isobutyl-6′,9′-dimethyl-1′,5′,8′,11′-tetraoxo-2′,3′,4′,5′,6′,7′,8′,9′,11′,12′,13′,14′-dodecahydro-1′H-spiro[cyclopropane-1,10′-[1]oxa[4,7,10,14]tetraazacycloheptadecino[16,17-f]quinoline]-3′-carboxamide] | – | – | EC50 [3]: 420 nM; Emax [4]: 375%
6 | [2H]C1([2H])Oc2ccc3c(c2O1)C(=O)N[C@H](C(=O)NCCc1cccc(OC)c1)CC(=O)N(C)[C@@H](CC(C)C)C(=O)N(C)CC(=O)N[C@H](Cc1ccccc1)CO3 [Example 324, (8R,14S,18S)-8-benzyl-14-isobutyl-N-(3-methoxyphenethyl)-12,15-dimethyl-10,13,16,20-tetraoxo-7,8,9,10,11,12,13,14,15,16,17,18,19,20-tetradecahydro-[1,3]dioxolo[4′,5′:5,6]benzo[1,2-p][1]oxa[4,7,10,14]tetraazacycloheptadecine-2,2-d2-18-carboxamide] | 247% | 666 nM | –
7 | COc1nccc2c1C(=O)N[C@H](C(=O)NCCc1cc(C3CC3)no1)CC(=O)N(C)[C@@H](CC(C)C)C(=O)N1CCC3(CC3)C[C@@H]1C(=O)N[C@H](Cc1ccccc1)CO2 (single isomer, unassigned) [Example 669, (7′S,11′S,17a′S,20′R)-20′-benzyl-N-(2-(3-cyclopropylisoxazol-5-yl)ethyl)-11′-isobutyl-4′-methoxy-10′-methyl-5′,9′,12′,18′-tetraoxo-5′,6′,7′,8′,9′,10′,11′,12′,14′,15′,17′,17a′,18′,19′,20′,21′-hexadecahydrospiro[cyclopropane-1,16′-dipyrido[2,1-f:3′,4′-p][1]oxa[4,7,10,14]tetraazacycloheptadecine]-7′-carboxamide] | – | – | EC50 [5]: 856 nM; Emax [6]: 230%
8 | CCOc1cccc(CCNC(=O)[C@@H]2CC(=O)N(C)[C@@H](CC(C)C)C(=O)N3CCOC[C@@H]3C(=O)N[C@H](Cc3ccccc3)COc3ccc4ccccc4c3C(=O)N2)c1 [Example 397, (4aR,7R,18S,22S)-7-benzyl-N-(3-ethoxyphenethyl)-22-isobutyl-21-methyl-5,16,20,23-tetraoxo-1,2,4,4a,5,6,7,8,16,17,18,19,20,21,22,23-hexadecahydronaphtho[1,2-p][1,4]oxazino[3,4-f][1]oxa[4,7,10,14]tetraazacycloheptadecine-18-carboxamide] | 207% | 262 nM | –
9 | COc1cccc(CCNC(=O)[C@@H]2CC(=O)N(C)[C@@H](CC(C)C)C(=O)N3CCCC[C@H]3C(=O)N[C@H](Cc3ccccc3)COc3cnc4ccccc4c3C(=O)N2)c1 [Example 366, (9S,13S,19aS,22R)-22-benzyl-13-isobutyl-N-(3-methoxyphenethyl)-12-methyl-7,11,14,20-tetraoxo-7,8,9,10,11,12,13,14,17,18,19,19a,20,21,22,23-hexadecahydro-16H-pyrido[2′,1′:6,7][1]oxa[4,7,10,14]tetraazacycloheptadecino[17,16-c]quinoline-9-carboxamide] | 172% | 265 nM | –
10 | COc1nccc2c1C(=O)N[C@H](C(=O)NCCc1noc(C3CC3)n1)CC(=O)N(C)[C@@H](CC(C)C)C(=O)N(C)[C@H](CCc1nc(C(C)(C)C)no1)C(=O)N[C@H](Cc1ccccc1)CO2 [Example 881, (3R,6R,9S,13S)-3-benzyl-6-(2-(3-(tert-butyl)-1,2,4-oxadiazol-5-yl)ethyl)-N-(2-(5-cyclopropyl-1,2,4-oxadiazol-3-yl)ethyl)-9-isobutyl-16-methoxy-7,10-dimethyl-5,8,11,15-tetraoxo-2,3,4,5,6,7,8,9,10,11,12,13,14,15-tetradecahydropyrido[3,4-p][1]oxa[4,7,10,14]tetraazacycloheptadecine-13-carboxamide] | – | – | EC50 [3]: 309 nM; Emax [4]: 337%
11 | COCCN1C(=O)[C@H](CC(C)C)N(C)C(=O)C[C@@H](C(=O)NCCc2cccc(OC)c2)NC(=O)c2c(ccc3ccccc23)OC[C@@H](Cc2ccccc2)NC(=O)C12CC2 [Example 457, (3′S,7′S,13′R)-13′-benzyl-7′-isobutyl-9′-(2-methoxyethyl)-N-(3-methoxyphenethyl)-6′-methyl-1′,5′,8′,11′-tetraoxo-2′,3′,4′,5′,6′,7′,8′,9′,11′,12′,13′,14′-dodecahydro-1′H-spiro[cyclopropane-1,10′-naphtho[1,2-p][1]oxa[4,7,10,14]tetraazacycloheptadecine]-3′-carboxamide] | – | – | EC50 [5]: 326 nM; Emax [6]: 144%
12 | COc1cccc(CCNC(=O)[C@@H]2CC(=O)N(C)[C@@H](CC(C)C)C(=O)N(C)C(C)(C)C(=O)N[C@H](Cc3ccccc3)COc3cnc4ccccc4c3C(=O)N2)c1 [Example 503, (3S,7S,13R)-13-benzyl-7-isobutyl-N-(3-methoxyphenethyl)-6,9,10,10-tetramethyl-1,5,8,11-tetraoxo-1,2,3,4,5,6,7,8,9,10,11,12,13,14-tetradecahydro-[1]oxa[4,7,10,14]tetraazacycloheptadecino[17,16-c]quinoline-3-carboxamide] | – | – | EC50 [5]: 772 nM; Emax [6]: 137%
13 | COc1cccc(CCNC(=O)[C@@H]2CC(=O)N(C)[C@@H](CC3CCCCC3)C(=O)N(C[C@H]3CCCCO3)CC(=O)N[C@H](Cc3ccccc3)COc3ccc4ccccc4c3C(=O)N2)c1 (mixture of isomers) [Example 296, (3RS,7S,13R)-13-benzyl-7-(cyclohexylmethyl)-N-(3-methoxyphenethyl)-6-methyl-1,5,8,11-tetraoxo-9-(((R)-tetrahydro-2H-pyran-2-yl)methyl)-1,2,3,4,5,6,7,8,9,10,11,12,13,14-tetradecahydronaphtho[1,2-p][1]oxa[4,7,10,14]tetraazacycloheptadecine-3-carboxamide] | – | 158 nM | –

More lines, main results first:

Row | Emax [2] | SMILES | EC50 [1] | other results
14 | 144% | CN1C(=O)C[C@@H](C(=O)NCCc2ccc3c(c2)OCO3)NC(=O)c2c(ccc3ccccc23)OC[C@@H](Cc2ccccc2)NC(=O)CN(C[C@H]2CCCCO2)C(=O)[C@@H]1CC1CCCC1 (racemic) [Example 286, (3RS,7S,13R)-N-(2-(benzo[d][1,3]dioxol-5-yl)ethyl)-13-benzyl-7-(cyclopentylmethyl)-6-methyl-1,5,8,11-tetraoxo-9-(((R)-tetrahydro-2H-pyran-2-yl)methyl)-1,2,3,4,5,6,7,8,9,10,11,12,13,14-tetradecahydronaphtho[1,2-p][1]oxa[4,7,10,14]tetraazacycloheptadecine-3-carboxamide] | – | –
15 | 191% | CN1C(=O)C[C@@H](C(=O)NCCc2ccc3c(c2)OCO3)NC(=O)c2c(ccc3ccccc23)OC[C@@H](Cc2ccccc2)NC(=O)CN(CCC2CCCCC2)C(=O)[C@@H]1CC1CCC1 (racemic) [Example 292, (3RS,7S,13R)-N-(2-(benzo[d][1,3]dioxol-5-yl)ethyl)-13-benzyl-7-(cyclobutylmethyl)-9-(2-cyclohexylethyl)-6-methyl-1,5,8,11-tetraoxo-1,2,3,4,5,6,7,8,9,10,11,12,13,14-tetradecahydronaphtho[1,2-p][1]oxa[4,7,10,14]tetraazacycloheptadecine-3-carboxamide] | – | –
